Assay results reported in patent publication US6235891A, “Glucocorticoid receptor agonist and decreased PP5” (South Alabama Medical Science Foundation, priority 1999, dated 2001).

Test system: PP5 mRNA
Assay: Northern blot analysis of PP5 mRNA expression in A549 cells
Format: cell-based, human
Conditions: doses of 25 to 500 nM, read-out: IC50 for reduction of PP5 mRNA levels
From the text: The oligonucleotides shown in Table 1 were designed using the Genbank sequences HSSERTHRP (Genbank accession number X92121), HSRNAPPP5 (Genbank accession number X89416) and PPP5C (Genbank accession number U25174), synthesized and tested for inhibition of PP5 mRNA expression in A549 cells using a Northern blot assay. All oligonucleotides shown in Table 1 are chimeric oligonucleotides with central 2'-deoxy "gaps," which have phosphorothioate backbones, flanked on both sides by 2'-methoxyethoxy (2'-MOE) "wings" (shown in bold), which have phosphodiester backbones. All cytosines in the 2'-MOE wings are 5-methylcytosines.
In the initial screen, A549 cells were treated with oligonucleotides at a concentration of 300 nM oligonucleotide for four hours in the presence of […] lipofectin. Results were normalized and expressed as a percent of control. The effect of each oligonucleotide on levels of PP5 mRNA, expressed as approximate percent inhibition compared to control, is shown in Table 1. In this initial screen, oligonucleotides giving a reduction of PP5 mRNA of approximately 50% or greater were considered active. […] These sequences (SEQ ID NO: 1, 2, 3, 4, 6, 7 and 12, respectively, SEQ ID Nos shown in bold in Table 1) are therefore preferred.
These oligonucleotides were tested for their ability to reduce PP5 mRNA levels in A549 cells, using oligonucleotide doses of 25 to 500 nM.
The human lung tumor cell line A549 was obtained from the American Type Culture Collection (Rockville Md.) and were grown in DMEM (Gibco BRL, Gaithersburg Md.), supplemented with 10% fetal calf. Cells were seeded on 60 mm plates. When they reached 70% confluency, they were washed with DMEM and 1 ml of DMEM containing 15 μg/ml DOTMA/DOPE (Lipofectin®, GIBCO-BRL) and oligonucleotide at desired concentration was added. Duplicate dishes were used for each treatment condition. After 4 hours of treatment at 37°, cells were washed and cultured in fresh DMEM containing 10% fetal bovine serum for an additional 17 hours. Cells were then harvested and total RNA was extracted with TRIzol Reagent (GIBCO-BRL) according to manufacturer's protocol. Total RNA (20 μg) was fractionated on a 1% agarose gel containing formaldehyde, and transferred to a DURLON-UV (Stratagene) nylon membrane. Following UV crosslinking, the filters were hybridized with the appropriate protein phosphatase probe. The ^32 P-labeled human PP cDNA probes are generated with DECAPrime® DNA Labeling Kit (Ambion) according to the manufacturer's protocol. Hybridization was performed in a hybridization solution containing 50% formamide at 42° for 16 hours. This was followed by two low stringency washes (2×SSC) at room temperature and two high stringency washes (0.1×SSC/0.5% SDS) at 55° C. Hybridization signals were visualized by autoradiography, and filters were then stripped and reprobed with a ^32 P-labeled glyceraldehyde-3-phosphate dehydrogenase (GAPDH) probe to confirm equal loading. The densities of hybridization signals were measured with the NIH Image program (ImagePC).
The cells were harvested, and total RNA was extracted with TRIzol® Reagent according to the methods of the manufacturer. Total RNA (20 μg) was fractionated on 1% agarose gels containing formaldehyde and transferred to DURLON-UV nylon membranes (Stratagene). Following UV cross-linking, the filters were hybridized with a [α^32 P]probe for human PP5. The human PP5 cDNA probe was generated from the full length coding region of PP5 and [α^32 P]-dATP was labeled with DECAprime® DNA Labeling Kit according to the manufacturer's protocol. Hybridization was performed in the presence of 50% formamide, 0.1 M Pipes, 0.8 M NaCl, 5×Denhardt's solution, 100 μg/ml denatured herring sperm DNA, 1×10^6 cpm/ml [α-^32 P]-labeled probe and 10% dextran sulfate at 42° C. for 16 hours. Following hybridization, the membrane was subjected to two low stringency washes (2×SSC) at room temperature and then two high stringency washes (0.1×SSC/0.5% SDS) at 55° C. […]

Question: Which IC50 does the source give for “ISIS 15534: chimeric PP5 antisense oligonucleotide, P=O wings, P=S deoxy gap; GGGCCCTATTGCTTGAGTGG, SEQ ID NO: 12 (sugars by position and backbone not given here; chimeric, phosphodiester wings, phosphorothioate deoxy gap)” here?
Answer: The IC50 was roughly 135 nM.
